Laboratory results as given in ChEMBL document CHEMBL5344426, “Imidazolone as an Amide Bioisostere in the Development of β-1,3-N-Acetylglucosaminyltransferase 2 (B3GNT2) Inhibitors” (J Med Chem, 2023).
Values after ≈ are worked out from the molar mass of the structure shown.

Key:
Jurkat = assay: Antiproliferative activity against human Jurkat cells assessed as inhibition of cell growth incubated for 3 days by SYTOX blue staining based flow cytometry analysis; assay type: functional; settings: 72 h
[1] = target: T1, N-acetyllactosaminide beta-1,3-N-acetylglucosaminyltransferase 2 (Homo sapiens, UniProt Q9NY97); assay: Inhibition of B3GNT2 (unknown origin) using N-acetyl-lactosamine and UDP-GlcNAc as substrate incubated for 1.5 to 2 hrs by UDP-Glo based analysis
T1 sequence (Q9NY97 whole entry): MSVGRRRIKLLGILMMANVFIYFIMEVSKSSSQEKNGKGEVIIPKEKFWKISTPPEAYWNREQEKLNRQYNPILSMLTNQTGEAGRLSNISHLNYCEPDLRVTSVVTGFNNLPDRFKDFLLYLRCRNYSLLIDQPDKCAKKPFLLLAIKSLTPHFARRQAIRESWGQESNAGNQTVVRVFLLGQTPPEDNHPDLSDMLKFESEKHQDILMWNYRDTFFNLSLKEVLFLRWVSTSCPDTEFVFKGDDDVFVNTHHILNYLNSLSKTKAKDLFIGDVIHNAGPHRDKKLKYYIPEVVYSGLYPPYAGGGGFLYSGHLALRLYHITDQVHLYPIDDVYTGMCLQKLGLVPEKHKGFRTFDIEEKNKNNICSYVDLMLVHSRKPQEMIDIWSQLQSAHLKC

[2] = Solubility of compound in PBS incubated for 48 to 72 hrs by LC-MS analysis; assay type: physicochemical; settings: time 48-72 hrs
[3] = Microsomal stability in mouse liver microsome assessed as intrinsic clearance at 1 uM incubated for 20 mins in presence of NADPH by LC-MS/MS analysis; assay type: ADME; settings: liver microsomes, read-out: CLH
[4] = Microsomal stability in human liver microsome assessed as intrinsic clearance at 1 uM incubated for 20 mins in presence of NADPH by LC-MS/MS analysis; assay type: ADME; settings: liver microsomes, read-out: CLH
[5] = Clearance in mouse at 5 mg/kg, po; assay type: ADME, organism-based; settings: in vivo; for CL: po, 5 mg/kg
[6] = Solubility of compound in FeSSIF incubated for 48 to 72 hrs by LC-MS analysis; assay type: physicochemical; settings: time 48-72 hrs
[7] = Half life in mouse at 5 mg/kg, po; assay type: ADME, organism-based; settings: in vivo; for t1/2: po, 5 mg/kg
[8] = Microsomal stability in rat liver microsome assessed as intrinsic clearance at 1 uM incubated for 20 mins in presence of NADPH by LC-MS/MS analysis; assay type: ADME; settings: liver microsomes, read-out: CLH
[9] = Solubility of compound in HCL incubated for 48 to 72 hrs by LC-MS analysis; assay type: physicochemical; settings: time 48-72 hrs
[10] = Volume of distribution at steady state in mouse at 5 mg/kg, po; assay type: ADME, organism-based; settings: in vivo
[11] = target: N-acetyllactosaminide beta-1,3-N-acetylglucosaminyltransferase 4 (Homo sapiens, UniProt Q9C0J1); assay: Inhibition of B3GNT4 (unknown origin) using Beta-lactose and UDP-GlcNAc as substrate incubated for 1.5 to 2 hrs by UDP-Glo based analysis
N-acetyllactosaminide beta-1,3-N-acetylglucosaminyltransferase 4, sequence (Q9C0J1 whole entry): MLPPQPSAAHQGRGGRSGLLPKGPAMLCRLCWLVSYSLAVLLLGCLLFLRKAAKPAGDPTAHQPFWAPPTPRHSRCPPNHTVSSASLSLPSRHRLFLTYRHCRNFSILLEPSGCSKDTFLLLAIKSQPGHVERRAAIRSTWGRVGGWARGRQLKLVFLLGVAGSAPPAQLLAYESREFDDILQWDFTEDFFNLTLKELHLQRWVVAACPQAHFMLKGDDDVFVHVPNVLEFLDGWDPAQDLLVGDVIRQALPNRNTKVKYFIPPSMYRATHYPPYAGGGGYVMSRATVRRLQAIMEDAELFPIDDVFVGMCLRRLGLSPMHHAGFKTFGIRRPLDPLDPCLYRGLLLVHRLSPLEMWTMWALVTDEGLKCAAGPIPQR

[12] = Permeability of compound across apical to basolateral in MDCK-II cells incubated for 2 hrs by LC-MS/MS analysis; assay type: ADME, cell-based, Canis lupus familiaris; settings: dog, read-out: permeability
[13] = Oral bioavailability in mouse at 5 mg/kg; assay type: ADME, organism-based; settings: in vivo

SMILES | IC50 (Jurkat) [µM] | IC50 ([1]; read-out: IC50) [µM] | IC50 [11] [µM] | also measured
C[C@@H](n1c(=O)[nH]c2ccc(C3=N[C@@](C)(c4ccc5nccn5c4)NC3=O)cc21)C(C)(C)C | 38.2 | 0.37 | – | –
C[C@@H](n1c(=O)[nH]c2ccc(C3=NC(=O)[C@](C)(c4cnc(C(F)(F)F)nc4)N3)cc21)C(C)(C)C | 1.1 | 0.009 | > 250 | solubility [2]: 154 µM (≈ 70.9 µg/mL); microsomal CLint at 1 µM [3]: 15 µL/min/mg; microsomal CLint at 1 µM [4]: 14 µL/min/mg; CL [5]: 5 mL/min/kg; solubility [6]: 485 µM (≈ 223 µg/mL); t1/2 [7]: 1.4 h; microsomal CLint at 1 µM [8]: 15 µL/min/mg; solubility [9]: 329 µM (≈ 151 µg/mL); Vdss [10]: 2.6 L/kg; Papp A→B at 2 h [12]: 17 ×10⁻⁶ cm/s; bioavailability [13]: 54%
Cc1ncc([C@H](C)NC(=O)c2ccc3[nH]c(=O)n([C@H](C)C(C)(C)C)c3c2)cn1 | 22.4 | 0.12 | > 250 | –
Cc1ccc([C@H](C)NC(=O)c2ccc3[nH]c(=O)n([C@H](C)C(C)(C)C)c3c2)nc1 | 8.8 | 0.093 | > 250 | –
C[C@@H](n1c(=O)[nH]c2ccc(C3=N[C@]4(CCc5cc(Br)ccc54)NC3=O)cc21)C(C)(C)C | 6.4 | 0.053 | – | –
C[C@@H](n1c(=O)[nH]c2ccc(C3=NC(=O)[C@](C)(c4ccccc4)N3)cc21)C(C)(C)C | > 85 | 0.6 | > 250 | –
C[C@@H](n1c(=O)[nH]c2ccc(C(=O)Nc3ccccc3)cc21)C(C)(C)C | 38.8 | 0.82 | > 250 | –
C[C@@H](n1c(=O)[nH]c2ccc(C3=NC(C)(c4cnc(C(F)(F)F)nc4)C(=O)O3)cc21)C(C)(C)C (stereo partly specified) | – | – | – | IC50 [1]: Not Active
C[C@@H](n1c(=O)[nH]c2ccc(C3=C[C@@](C)(c4cnc(C(F)(F)F)nc4)OC3=O)cc21)C(C)(C)C | 5.6 | 0.028 | – | –
Cc1[nH]c2ccc([C@]3(C)N=C(c4ccc5[nH]c(=O)n([C@H](C)C(C)(C)C)c5c4)C(=O)N3)cc2c1C | – | 1.01 | – | –
C[C@H](NC(=O)c1ccc2[nH]c(=O)n([C@H](C)C(C)(C)C)c2c1)c1ncc(Cl)cn1 | 29.2 | 0.43 | > 250 | –
C[C@@H](n1c(=O)[nH]c2ccc(C(=O)O)cc21)C(C)(C)C | > 85 | 0.26 | 122 | –
C[C@H](NC(=O)c1ccc2[nH]c(=O)n([C@H](C)C(C)(C)C)c2c1)c1ccc(Cl)cn1 | 32 | 0.23 | > 250 | –
C[C@@H](n1c(=O)[nH]c2ccc(C3=N[C@@](C)(c4ccc(Cl)cn4)NC3=O)cc21)C(C)(C)C | 8.2 | 0.069 | – | –
Cc1ncc([C@]2(C)NC(c3ccc4[nH]c(=O)n([C@H](C)C(C)(C)C)c4c3)=NC2=O)cn1 | 4.2 | 0.024 | > 250 | –
Cc1ccc([C@]2(C)NC(c3ccc4[nH]c(=O)n([C@H](C)C(C)(C)C)c4c3)=NC2=O)cn1 | 5.1 | 0.029 | – | –
C[C@@H](n1c(=O)[nH]c2ccc(C3=NC(=O)[C@](C)(c4ccc(C(F)(F)F)nc4)N3)cc21)C(C)(C)C | 2.3 | 0.008 | – | solubility [2]: 66 µM (≈ 30.3 µg/mL); microsomal CLint at 1 µM [3]: 14 µL/min/mg; microsomal CLint at 1 µM [4]: 34 µL/min/mg; CL [5]: 5 mL/min/kg; solubility [6]: 500 µM (≈ 230 µg/mL); t1/2 [7]: 1.5 h; microsomal CLint at 1 µM [8]: 14 µL/min/mg; solubility [9]: 311 µM (≈ 143 µg/mL); Vdss [10]: 3.4 L/kg; Papp A→B at 2 h [12]: 15 ×10⁻⁶ cm/s; bioavailability [13]: 66%
C[C@H](NC(=O)c1ccc2[nH]c(=O)n([C@H](C)C(C)(C)C)c2c1)c1ccc(C(F)(F)F)cn1 | 66.1 | 0.23 | > 250 | –
C[C@@H](NC(=O)c1ccc2[nH]c(=O)n([C@H](C)C(C)(C)C)c2c1)c1ccc(Cl)cc1 | – | 2.72 | > 250 | –
C[C@H](NC(=O)c1ccc2[nH]c(=O)n([C@H](C)C(C)(C)C)c2c1)c1cnc(Cl)nc1 | 15.3 | 0.076 | > 250 | –
CC(C)NC(=O)c1ccc2[nH]c(=O)n([C@H](C)C(C)(C)C)c2c1 | – | 2.9 | > 250 | –

SMILES | IC50 (Jurkat) [µM] | IC50 ([1]; read-out: IC50) [µM] | IC50 [11] [µM] | also measured
C[C@@H](n1c(=O)[nH]c2ccc(C(=O)NCc3ccc(Cl)cc3)cc21)C(C)(C)C | 67.8 | 0.61 | > 250 | –
C[C@@H](n1c(=O)[nH]c2ccc(C3=N[C@@](C)(c4cc5ccccc5[nH]4)NC3=O)cc21)C(C)(C)C | 9.9 | 0.055 | – | –
C[C@H](NC(=O)c1ccc2[nH]c(=O)n([C@H](C)C(C)(C)C)c2c1)c1ccc(Br)cn1 | 12.5 | 0.1 | 169 | –
C[C@@H](n1c(=O)[nH]c2ccc(C3=NC(=O)[C@](C)(c4ccc(Cl)cn4)N3)cc21)C(C)(C)C | 8.1 | 0.066 | – | –
C[C@@H](n1c(=O)[nH]c2ccc(C3=NC(c4ccc(Cl)cn4)(c4ccc(Cl)cn4)NC3=O)cc21)C(C)(C)C | 37.1 | 0.2 | – | –
C[C@@H](n1c(=O)[nH]c2ccc(C3=NC(=O)[C@@](C)(c4ccc(Cl)cn4)N3)cc21)C(C)(C)C | – | 0.51 | – | –
C[C@@H](n1c(=O)[nH]c2ccc(C3=N[C@@](C)(c4cnc(C(F)(F)F)nc4)NC3=O)cc21)C(C)(C)C | 3.8 | 0.024 | – | –
C[C@@H](n1c(=O)[nH]c2ccc(C3=N[C@@](c4cccnc4)(c4nnc[nH]4)NC3=O)cc21)C(C)(C)C | > 85 | 0.026 | – | –
C[C@H](NC(=O)c1ccc2[nH]c(=O)n([C@H](C)C(C)(C)C)c2c1)c1cnc(C(F)(F)F)nc1 | 17.2 | 0.07 | > 250 | solubility [2]: 155 µM (≈ 67.5 µg/mL); microsomal CLint at 1 µM [3]: 61 µL/min/mg; microsomal CLint at 1 µM [4]: 14 µL/min/mg; CL/F [5]: 13.3 mL/min/kg; solubility [6]: 298 µM (≈ 130 µg/mL); half-life [7]: 1.9 h; microsomal CLint at 1 µM [8]: 42 µL/min/mg; solubility [9]: 180 µM (≈ 78.4 µg/mL); Vdss [10]: 1.8 L/kg; Papp A→B at 2 h [12]: 21 ×10⁻⁶ cm/s; bioavailability [13]: 28%
C[C@@H](n1c(=O)[nH]c2ccc(C3=N[C@@](Cc4ccccc4)(c4cnc(C(F)(F)F)nc4)NC3=O)cc21)C(C)(C)C | 4 | 0.013 | – | –
C[C@@H](n1c(=O)[nH]c2ccc(C3=NOC(C)(c4ccccc4)N3)cc21)C(C)(C)C (stereo partly specified) | 28 | 0.9 | – | –
C[C@@H](n1c(=O)[nH]c2ccc(C(=O)NC(C)(C)c3ccc(Cl)cc3)cc21)C(C)(C)C | – | 0.84 | > 250 | –
C[C@@H](n1c(=O)[nH]c2ccc(C3=NC(=O)[C@](C)(c4ccc(C(F)(F)F)cn4)N3)cc21)C(C)(C)C | 23.8 | 0.03 | – | –
CC(C)Cn1c(=O)[nH]c2ccc(C(=O)O)cc21 | – | 9.1 | > 250 | –
C[C@@H](n1c(=O)[nH]c2ccc(C3=N[C@](c4ccc(Cl)nc4)(c4ccccn4)NC3=O)cc21)C(C)(C)C | 5.5 | 0.039 | – | –
C[C@H](NC(=O)c1ccc2[nH]c(=O)n([C@H](C)C(C)(C)C)c2c1)c1cnc(Cl)cn1 | 23.5 | 0.89 | > 250 | –
C[C@@H](n1c(=O)[nH]c2ccc(C(=O)N3CCOCC3)cc21)C(C)(C)C | – | 26.6 | > 250 | –
Cc1ccc([C@]2(C)NC(c3ccc4[nH]c(=O)n([C@H](C)C(C)(C)C)c4c3)=NC2=O)nc1 | 13.8 | 0.096 | – | –
C[C@@H](n1c(=O)[nH]c2ccc(C3=NC(=O)[C@](C)(c4ncc(Cl)cn4)N3)cc21)C(C)(C)C | 16.2 | 0.082 | – | –
C[C@H](NC(=O)c1ccc2[nH]c(=O)n([C@H](C)C(C)(C)C)c2c1)c1ccc(Cl)cc1 | 47.2 | 0.29 | > 250 | –
Cc1[nH]c2cc(NC(=O)c3ccc4[nH]c(=O)n([C@H](C)C(C)(C)C)c4c3)ccc2c1C | 3.6 | 0.06 | 165 | –
